From patent US11247982B2, “NMDA receptor modulators, compositions comprising same and use of these compounds in the treatment of diseases involving the central nervous system” (ADPUERIVITAM, priority 2017, dated 2022)

System: NMDA receptors
Test: Whole-cell patch-clamp of NMDA currents in cultured rat embryonic hippocampal neurons
Assay type: cell-based
Settings: for A. NMDA current: Summary: 10 μM test compound; for C. Channel closing kinetics: T run-down (ms) / C. Channel closing kinetics: Tau (s) / D. Desensitization: Slope (pA/s) / C. Channel closing kinetics: Max slope (pA/s) / B. Channel opening kinetics: Min slope (pA/s) / C. Channel closing kinetics: Run down slope (pA/s) / B. Channel opening kinetics: Run-up slope (pA/s) / B. Channel opening kinetics: T run-up (ms) / B. Channel opening kinetics: Time to peak (ms): 10 μM test compound vs NMDA alone; for C. Channel closing kinetics: T run-down (ms): closing time between 90% and 10% of max current; for C. Channel closing kinetics: T run-down (ms) / C. Channel closing kinetics: Tau (s) / D. Desensitization: Slope (pA/s) / C. Channel closing kinetics: Max slope (pA/s) / B. Channel opening kinetics: Min slope (pA/s) / C. Channel closing kinetics: Run down slope (pA/s) / B. Channel opening kinetics: Run-up slope (pA/s) / B. Channel opening kinetics: T run-up (ms) / B. Channel opening kinetics: Time to peak (ms) / A. NMDA current: Width 50 (ms) / A. NMDA current: Peak area (pA · s): (n) = cells; for C. Channel closing kinetics: Tau (s): closing time of 50% of the channels (half-life); for D. Desensitization: Slope (pA/s): desensitization speed during the application of NMDA; for C. Channel closing kinetics: Max slope (pA/s): greatest closing speed; for B. Channel opening kinetics: Min slope (pA/s): greatest opening speed; for C. Channel closing kinetics: Run down slope (pA/s): mean closing speed during T run-down; for B. Channel opening kinetics: Run-up slope (pA/s): mean opening speed during T run-up; for B. Channel opening kinetics: T run-up (ms): opening time between 10% and 90% of max current; for B. Channel opening kinetics: Time to peak (ms): time to reach the maximum current; for A. NMDA current: Width 50 (ms) / A. NMDA current: Peak area (pA · s) / A. NMDA current: Height (pA): 10 μM test compound with 100 μM NMDA + 5 μM L-glycine vs NMDA alone; for A. NMDA current: Width 50 (ms): duration of current above 50% of Height; for A. NMDA current: Peak area (pA · s): total current integrated over time; for A. NMDA current: Height (pA): −60 mV, maximum current, (n) = number of cells; for A. NMDA current: Washable / B. Channel opening kinetics: Washable / C. Channel closing kinetics: Washable / D. Desensitization: Washable: persistence of effect, NMDA wash vs NMDA + test compound
Description: Female Wistar rats in gestation with 17-day-old embryos (E17) were obtained from Janvier Labs. On the day of receipt of the animals, the rat is sacrificed and the embryos are dissected under sterile conditions to remove their brain, which is then micro-dissected in GBSS (Gey's balanced salt solution) medium to obtain the hippocampus from the two hemispheres, while discarding the meninges. The tissues harvested from at least five embryos are placed in 2 ml of DMEM medium (registered trademark) (Dulbecco's modified Eagle's medium—from Life Technologies) with 2% of fetal calf serum, 2 mM of glutamine, 0.1 mg/mL of penicillin-streptomycin antibiotic mixture (Life Technologies) and subjected to mechanical dissociation of the cells by passing through round-ended glass pipettes with an inside diameter decreasing from 0.5 to 0.2 mm. The cells are counted and 100 μl of suspension containing 25×10^3 cells are placed on a glass slide coated with polylysine (poly-D-lysine hydrobromide from 75 to 150 kDa, from Sigma) of Ø 12 mm, in 12-well culture plates and incubated for 2 hours at 37° C. under an atmosphere containing 5% of CO2 to allow cell adhesion. A volume of 2 mL of culture medium is added gently: Neurobasal (registered trademark) with 1/50 (v:v) serum-free supplement B-27® (Life Technologies), 2 mM of glutamine, 0.1 mg/ml of penicillin-streptomycin antibiotic mixture (from Life Technologies), and incubation is again performed under the same conditions. Half of the medium is replaced twice a week for maintenance. The neuronal cells will be able to differentiate over a period of 12 to 30 days. The cultures are monitored by phase-contrast microscopy: the extension of the neurites and of the synaptic connections is observed for the neurons, which represent the majority of the cells, while a few astrocytes are also present.
The electrophysiology post consists of an Olympus IMT-2 model inverted phase-contrast microscope placed on a TMC antivibration table in a Faraday cage. The installation also comprises an SF-77B model Warner multichannel perfusion system, a Burleigh PCS-5000 model 3D-micromanipulator system holding the microelectrode probe, a Warner PC-505 model patch-clamp amplifier and a PowerLab 8/35 model 8-channel analog-digital interface from ADInstruments. The glass microelectrode is manufactured with thin-walled borosilicate capillary tubes (1.5 OD×1.17 ID×100 L mm, from Harvard Apparatus) and prepared with the Narishige PC10 model vertical electrode puller to obtain an electrical resistance of about 5 MOhm. The electrode of the pipette is filled with the intracellular medium composed of (in mM): 100 CsF, 40 CsCl, 1.2 CaCl2, 20 HEPES, 10 EGTA, pH=7.4 (adjusted with CsOH).
The culture on its slide is placed in a 60 mm Petri dish with 2 ml of extracellular medium composed of (in mM): 140 NaCl, 5 KCl, 1.2 CaCl2, 1.5 MgCl2, 12 HEPES, 12 Na-HEPES, 33 glucose, pH=7.4.
The neuron selected is patched in the whole cell configuration. The maintenance potential is set at −60 mV.
The assembled glass microtubes of square cross section of the perfusion system each provide a stable stream of different composition. The “TTX” default medium corresponds to the extracellular medium to which is added 1 μM tetrodotoxin. The “NMDA” application medium is “TTX” supplemented with 100 μM of NMDA (N-methyl-D-aspartate) as agonist, and 5 μM of L-glycine as co-agonist. The “NMDA+ test compound” medium corresponds to the “NMDA” supplemented with 10 μM of the test compound. The “NMDA wash” is identical to the “NMDA” medium.
As a general rule, three applications of each test compound are performed on the patched cell, for 2 seconds at intervals of 3 minutes (to allow inversion of desensitization). The sequence of the applications is: 1) “NMDA”, 2) “NMDA+ test compound”, 3) “NMDA wash”. The “TTX” medium is applied by default, before and after each application of test compound. […]

SMILES: O=C(C[C@]1(O)C(=O)N(CCc2c[nH]c3ccccc23)c2ccccc21)c1cccc(Cl)c1 [Molecule 1]
- A. NMDA current: Summary: Antagonist (4+)
- C. Channel closing kinetics: T run-down (ms): 12 ± 6% (7)
- C. Channel closing kinetics: Tau (s): 29 ± 13% (6)
- D. Desensitization: Slope (pA/s): −59 ± 8% (7)
- C. Channel closing kinetics: Max slope (pA/s): −27 ± 10% (7)
- B. Channel opening kinetics: Min slope (pA/s): −35 ± 12% (7)
- C. Channel closing kinetics: Run down slope (pA/s): −48 ± 8% (7)
- B. Channel opening kinetics: Run-up slope (pA/s): −45 ± 7% (7)
- B. Channel opening kinetics: T run-up (ms): 3 ± 3% (7)
- B. Channel opening kinetics: Time to peak (ms): 1 ± 4% (7)
- A. NMDA current: Width 50 (ms): 0 ± 9% (7)
- A. NMDA current: Peak area (pA · s): −37 ± 12% (7)
- A. NMDA current: Height (pA): −43 ± 8% (7)
- A. NMDA current: Washable: No
- B. Channel opening kinetics: Washable: No
- C. Channel closing kinetics: Washable: No
- D. Desensitization: Washable: No

SMILES: O=C(C[C@]1(O)C(=O)N(CCc2c[nH]c3ccccc23)c2ccccc21)c1ccccc1F [Molecule 3]
- A. NMDA current: Summary: Antagonist (2+)
- C. Channel closing kinetics: T run-down (ms): 2 ± 4% (13)
- C. Channel closing kinetics: Tau (s): 17 ± 5 (13) %
- D. Desensitization: Slope (pA/s): −43 ± 8% (13)
- C. Channel closing kinetics: Max slope (pA/s): −22 ± 4% (13)
- B. Channel opening kinetics: Min slope (pA/s): −22 ± 4 (13) %
- C. Channel closing kinetics: Run down slope (pA/s): −30 ± 8% (13)
- B. Channel opening kinetics: Run-up slope (pA/s): −23 ± 5% (13)
- B. Channel opening kinetics: T run-up (ms): −8 ± 6% (13)
- B. Channel opening kinetics: Time to peak (ms): −5 ± 3% (13)
- A. NMDA current: Width 50 (ms): −10 ± 7% (13)
- A. NMDA current: Peak area (pA · s): −16 ± 8% (13)
- A. NMDA current: Height (pA): −24 ± 7% (13)
- A. NMDA current: Washable: (No/Yes)
- B. Channel opening kinetics: Washable: (Yes/No)
- C. Channel closing kinetics: Washable: No
- D. Desensitization: Washable: No

SMILES: Cc1ccc2[nH]c(=O)c(C3=NN(C(=O)CCC(=O)O)C(c4ccc(Br)cc4)C3)c(-c3ccccc3)c2c1 (stereo not shown) [DQP1105, reference compound]
- antagonistic effect on the maximum current amplitude (concentration of less than 1 μM): maintained at the same level

SMILES: O=C(C[C@]1(O)C(=O)N(CCc2c[nH]c3ccccc23)c2ccccc21)c1ccccc1Cl [Molecule 2]
- A. NMDA current: Summary: Antagonist (6+)
- C. Channel closing kinetics: T run-down (ms): −15 ± 5% (7)
- C. Channel closing kinetics: Tau (s): 44 ± 28% (7)
- D. Desensitization: Slope (pA/s): −70 ± 17% (7)
- C. Channel closing kinetics: Max slope (pA/s): −28 ± 8% (7)
- B. Channel opening kinetics: Min slope (pA/s): −25 ± 9% (7)
- C. Channel closing kinetics: Run down slope (pA/s): −63 ± 13% (7)
- B. Channel opening kinetics: Run-up slope (pA/s): −61 ± 10% (7)
- B. Channel opening kinetics: T run-up (ms): −16 ± 13% (7)
- B. Channel opening kinetics: Time to peak (ms): −7 ± 4% (7)
- A. NMDA current: Width 50 (ms): −49 ± 14% (7)
- A. NMDA current: Peak area (pA · s): −65 ± 13% (7)
- A. NMDA current: Height (pA): −66 ± 10% (7)
- A. NMDA current: Washable: Yes
- B. Channel opening kinetics: Washable: (Yes/No)
- C. Channel closing kinetics: Washable: (Yes/No)
- D. Desensitization: Washable: (Yes)
